Results published in US11958844B2, “1,3,4-oxadiazole derivative compounds as histone deacetylase 6 inhibitor, and pharmaceutical composition comprising the same” (Chong Kun Dang Pharmaceutical Corp., priority 2018, dated 2024).

Each molecule was assayed against T1, HDAC6 human recombinant (Homo sapiens, UniProt Q9UBN7) (assay: HDAC enzyme activity inhibition (in vitro), fluorimetric HDAC6 assay). Details: samples at 0.1, 1, 10, 100 and 1000 nM, 37° C. 60 minutes, fluorescence Ex 390, Em 460.
T1 sequence (Q9UBN7 1-1215): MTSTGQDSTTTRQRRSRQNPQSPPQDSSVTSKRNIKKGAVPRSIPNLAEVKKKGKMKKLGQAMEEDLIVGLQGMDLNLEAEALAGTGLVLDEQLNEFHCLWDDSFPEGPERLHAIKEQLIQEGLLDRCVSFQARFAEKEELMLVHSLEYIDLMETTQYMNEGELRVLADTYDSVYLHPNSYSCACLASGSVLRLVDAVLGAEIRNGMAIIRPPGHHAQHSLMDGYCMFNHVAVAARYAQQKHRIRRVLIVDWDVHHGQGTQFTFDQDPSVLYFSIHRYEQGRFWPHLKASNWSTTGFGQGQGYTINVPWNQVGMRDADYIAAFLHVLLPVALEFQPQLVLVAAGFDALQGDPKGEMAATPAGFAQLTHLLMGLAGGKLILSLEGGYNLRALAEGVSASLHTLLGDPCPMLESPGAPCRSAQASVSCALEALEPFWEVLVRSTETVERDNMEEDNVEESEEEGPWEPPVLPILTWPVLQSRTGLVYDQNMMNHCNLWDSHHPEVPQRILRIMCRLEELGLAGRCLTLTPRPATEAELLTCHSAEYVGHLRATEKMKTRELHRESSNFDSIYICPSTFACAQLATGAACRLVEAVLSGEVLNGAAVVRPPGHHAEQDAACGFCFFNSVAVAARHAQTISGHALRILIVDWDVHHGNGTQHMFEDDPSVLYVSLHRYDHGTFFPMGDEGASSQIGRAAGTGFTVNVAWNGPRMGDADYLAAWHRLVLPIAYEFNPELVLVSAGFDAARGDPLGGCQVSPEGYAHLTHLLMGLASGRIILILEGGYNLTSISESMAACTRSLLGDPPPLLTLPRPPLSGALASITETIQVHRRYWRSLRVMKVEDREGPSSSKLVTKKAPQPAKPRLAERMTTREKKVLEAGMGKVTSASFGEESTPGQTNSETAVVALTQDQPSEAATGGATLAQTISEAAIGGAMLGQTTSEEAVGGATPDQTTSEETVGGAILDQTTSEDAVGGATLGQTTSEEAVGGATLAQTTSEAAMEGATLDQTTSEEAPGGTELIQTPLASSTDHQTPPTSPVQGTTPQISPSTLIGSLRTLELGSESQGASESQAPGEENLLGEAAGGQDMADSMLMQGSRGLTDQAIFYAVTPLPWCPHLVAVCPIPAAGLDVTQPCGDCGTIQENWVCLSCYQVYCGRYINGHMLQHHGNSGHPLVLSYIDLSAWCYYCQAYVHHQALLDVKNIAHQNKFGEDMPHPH
Format: biochemical
Description: To identify this, HDAC1/6 enzyme selectivity and cell selectivity (HDAC1: histone acetylation/HDAC6: tubulin acetylation) were investigated accordingly.
An HDAC enzyme inhibitory ability of a test material was measured by means of HDAC1 Fluorimetric Drug Discovery Assay Kit (Enzolifesciences: BML-AK511) and HDAC6 human recombinant (Calbiochem: 382180). For an HDAC1 assay, samples were treated at a concentration of 100, 1000 and 10000 nM. For an HDAC6 assay, samples were treated at a concentration of 0.1, 1, 10, 100 and 1000 nM. After such sample treatment, a reaction was continued at 37° C. for 60 minutes, then treated with a developer, and then subjected to reaction at 37° C. for 30 minutes, after which fluorescence intensity (Ex 390, Em 460) was measured by means of FlexStation3 (Molecular device).

IC50 | SMILES
900 nM | O=C(OCCn1ccc(-c2nnc(C(F)(F)F)o2)cc1=O)c1ccccc1 [Compound 39, 2-(2-oxo-4-(5-(trifluoromethyl)-1,3,4-oxadiazole-2-yl)pyridine-1(2H)-yl)ethyl benzoate]
290 nM | O=C(C(Cn1ccc(-c2nnc(C(F)F)o2)cc1=O)c1ccccc1)N1CCOCC1 (centres unmarked) [Compound 45, 4-(5-(difluoromethyl)-1,3,4-oxadiazole-2-yl)-1-(3-morpholino-3-oxo-2-phenylpropyl)pyridine-2(1H)-one]
935 nM | O=C(Cn1ccc(-c2nnc(C(F)(F)F)o2)cc1=O)c1cccs1 [Compound 36, 1-(2-oxo-2-(thiophene-2-yl)ethyl)-4-(5-(trifluoromethyl)-1,3,4-oxadiazole-2-yl)pyridine-2(1H)-one]
364 nM | O=C(Cn1ccc(-c2nnc(C(F)F)o2)cc1=O)c1ccc2ccccc2c1 [Compound 7, 4-(5-(difluoromethyl)-1,3,4-oxadiazole-2-yl)-1-(2-(naphthalene-2-yl)-2-oxoethyl)pyridine-2(1H)-one]
1300 nM | O=C(Cn1ccc(-c2nnc(C(F)(F)F)o2)cc1=O)c1ccc(Cl)s1 [Compound 37, 1-(2-(5-chlorothiophene-2-yl)-2-oxoethyl)-4-(5-(trifluoromethyl)-1,3,4-oxadiazole-2-yl)pyridine-2(1H)-one]
5180 nM | O=C(Cn1ccc(-c2nnc(C(F)(F)F)o2)cc1=O)c1ccc2ccccc2c1 [Compound 41, 1-(2-(naphthalene-2-yl)-2-oxoethyl)-4-(5-(trifluoromethyl)-1,3,4-oxadiazole-2-yl)pyridine-2(1H)-one]
382 nM | O=C(C(Cn1ccc(-c2nnc(C(F)F)o2)cc1=O)c1ccccc1)N1CCS(=O)(=O)CC1 (centres unmarked) [Compound 44]
272 nM | O=c1cc(-c2nnc(C(F)F)o2)ccn1Cc1ccc([N+](=O)[O-])cc1 [Compound 26, 4-(5-(difluoromethyl)-1,3,4-oxadiazole-2-yl)-1-(4-nitrobenzyl)pyridine-2(1H)-one]
456 nM | O=c1cc(-c2nnc(C(F)F)o2)ccn1CCn1cccn1 [Compound 6, 1-(2-(1H-pyrazole-1-yl)ethyl)-4-(5-(difluoromethyl)-1,3,4-oxadiazole-2-yl)pyridine-2(1H)-one]
952 nM | O=C(OCCn1ccc(-c2nnc(C(F)F)o2)cc1=O)c1ccccc1 [Compound 16, 2-(4-(5-(difluoromethyl)-1,3,4-oxadiazole-2-yl)-2-oxopyridine-1(2H)-yl)ethyl]
381 nM | O=C(Cn1ccc(-c2nnc(C(F)F)o2)cc1=O)c1ccc2c(c1)OCCO2 [Compound 21]
306 nM | O=c1cc(-c2nnc(C(F)F)o2)ccn1Cc1cc(F)c(F)cc1F [Compound 13, 4-(5-(difluoromethyl)-1,3,4-oxadiazole-2-yl)-1-(2,4,5-trifluorobenzyl)pyridine-2(1H)-one]
284 nM | COc1ccc(OC)c(C(=O)Cn2ccc(-c3nnc(C(F)F)o3)cc2=O)c1 [Compound 24, 4-(5-(difluoromethyl)-1,3,4-oxadiazole-2-yl)-1-(2-(2,5-dimethoxyphenyl)-2-oxoethyl) pyridine-2(1H)-one]
1910 nM | O=C(Cn1ccc(-c2nnc(C(F)(F)F)o2)cc1=O)c1ccccc1 [Compound 42, 1-(2-oxo-2-phenylethyl)-4-(5-(trifluoromethyl)-1,3,4-oxadiazole-2-yl)pyridine-2(1H)-one]
40 nM | O=c1cc(-c2nnc(C(F)F)o2)ccn1C/C=C/c1ccccc1 [Compound 5, 1-cinnamyl-4-(5-(difluoromethyl)-1,3,4-oxadiazole-2-yl)pyridine-2(1H)-one]
509 nM | O=C(Cn1ccc(-c2nnc(C(F)F)o2)cc1=O)c1ccc(Cl)c(Cl)c1 [Compound 18, 1-(2-(3,4-dichlorophenyl)-2-oxoethyl)-4-(5-(difluoromethyl)-1,3,4-oxadiazole-2-yl)pyridine-2(1H)-one]

IC50 | SMILES
261 nM | O=C1c2ccccc2C(=O)N1CCCCn1ccc(-c2nnc(C(F)F)o2)cc1=O [Compound 29, 2-(4-(4-(5-(difluoromethyl)-1,3,4-oxadiazole-2-yl)-2-oxopyridine-1(2H)-yl)butyl)isoindoline-1,3-dione]
210 nM | O=C(Cn1ccc(-c2nnc(C(F)F)o2)cc1=O)c1ccccc1 [Compound 3, 4-(5-(difluoromethyl)-1,3,4-oxadiazole-2-yl)-1-(2-oxo-2-phenylethyl)pyridine-2(1H)-one]
2420 nM | O=c1cc(-c2nnc(C(F)(F)F)o2)ccn1Cc1ccccc1F [Compound 32, 1-(2-fluorobenzyl)-4-(5-(trifluoromethyl)-1,3,4-oxadiazole-2-yl)pyridine-2(1H)-one]
156 nM | O=c1cc(-c2nnc(C(F)F)o2)ccn1Cc1noc(C(F)(F)F)n1 [Compound 28, 4-(5-(difluoromethyl)-1,3,4-oxadiazole-2-yl)-1-((5-(trifluoromethyl)-1,2,4-oxadiazole-3-yl)methyl)pyridine-2(1H)-one]
247 nM | O=c1cc(-c2nnc(C(F)F)o2)ccn1CCC1OCCCO1 [Compound 9, 1-(2-(1,3-dioxane-2-yl)ethyl)-4-(5-(difluoromethyl)-1,3,4-oxadiazole-2-yl)pyridine-2(1H)-one]
945 nM | O=C(Cn1ccc(-c2nnc(C(F)(F)F)o2)cc1=O)OCc1ccccc1 [Compound 40, benzyl 2-(2-oxo-4-(5-(trifluoromethyl)-1,3,4-oxadiazole-2-yl)pyridine-1(2H)-yl)acetate]
2390 nM | O=C(Cn1ccc(-c2nnc(C(F)(F)F)o2)cc1=O)c1coc2ccccc12 [Compound 38, 1-(2-(benzofuran-3-yl)-2-oxoethyl)-4-(5-(trifluoromethyl)-1,3,4-oxadiazole-2-yl)pyridine-2(1H)-one]
1790 nM | O=c1cc(-c2nnc(C(F)(F)F)o2)ccn1Cc1cc(F)c(F)cc1F [Compound 30, 1-(2,4,5-trifluorobenzyl)-4-(5-(trifluoromethyl)-1,3,4-oxadiazole-2-yl)pyridine-2(1H)one]
238 nM | O=C(Cn1ccc(-c2nnc(C(F)F)o2)cc1=O)c1cccs1 [Compound 50, 4-(5-(difluoromethyl)-1,3,4-oxadiazole-2-yl)-1-(2-oxo-2-(thiophene-2-yl)ethyl)pyridine-2(1H)-one]
2210 nM | CS(=O)(=O)c1ccc(C(=O)Cn2ccc(-c3nnc(C(F)(F)F)o3)cc2=O)cc1 [Compound 35, 1-(2-(4-(methylsulfonyl)phenyl)-2-oxoethyl)-4-(5-(trifluoromethyl)-1,3,4-oxadiazole-2-yl)pyridine-2(1H)-one]
301 nM | O=C(N[C@@H](Cn1ccc(-c2nnc(C(F)F)o2)cc1=O)c1ccccc1)N1CCOCC1 [Compound 57, (R)—N-(2-(4-(5-(difluoromethyl)-1,3,4-oxadiazole-2-yl)-2-oxopyridine-1(2H)-yl)-1-phenylethyl)morpholine-4-carboxamide]
507 nM | O=c1cc(-c2nnc(C(F)F)o2)ccn1Cc1ccccc1F [Compound 17, 4-(5-(difluoromethyl)-1,3,4-oxadiazole-2-yl)-1-(2-fluorobenzyl)pyridine-2(1H)-one]
726 nM | CCC(CC)Cn1ccc(-c2nnc(C(F)F)o2)cc1=O [Compound 27, 4-(5-(difluoromethyl)-1,3,4-oxadiazole-2-yl)-1-(2-ethylbutyl)pyridine-2(1H)-one]
108 nM | O=c1cc(-c2nnc(C(F)F)o2)ccn1Cc1cccc(F)c1 [Compound 14, 4-(5-(difluoromethyl)-1,3,4-oxadiazole-2-yl)-1-(3-fluorobenzyl)pyridine-2(1H)-one]
126 nM | O=C(Cn1ccc(-c2nnc(C(F)F)o2)cc1=O)c1ccc(Cl)s1 [Compound 56, 1-(2-(5-chlorothiophene-2-yl)-2-oxoethyl)-4-(5-(difluoromethyl)-1,3,4-oxadiazole-2-yl)pyridine-2(1H)-one]
388 nM | CC(C)CCn1ccc(-c2nnc(C(F)F)o2)cc1=O [Compound 53]
